In one data set the target is CYP2C9 (Homo sapiens, UniProt P11712). Kind of data set: In vitro inhibition of cDNA expressed human CYP2C9 (diclofenac substrate, radio-HPLC). The following applies: mean of n=3. The method, then:
(§1) All incubations were conducted in triplicate.
(§2) See table 2 for HPLC mobile phase conditions.

The next data set has as its target T1, CYP1A2 (Homo sapiens, UniProt P05177).
T1 sequence (P05177 1-516): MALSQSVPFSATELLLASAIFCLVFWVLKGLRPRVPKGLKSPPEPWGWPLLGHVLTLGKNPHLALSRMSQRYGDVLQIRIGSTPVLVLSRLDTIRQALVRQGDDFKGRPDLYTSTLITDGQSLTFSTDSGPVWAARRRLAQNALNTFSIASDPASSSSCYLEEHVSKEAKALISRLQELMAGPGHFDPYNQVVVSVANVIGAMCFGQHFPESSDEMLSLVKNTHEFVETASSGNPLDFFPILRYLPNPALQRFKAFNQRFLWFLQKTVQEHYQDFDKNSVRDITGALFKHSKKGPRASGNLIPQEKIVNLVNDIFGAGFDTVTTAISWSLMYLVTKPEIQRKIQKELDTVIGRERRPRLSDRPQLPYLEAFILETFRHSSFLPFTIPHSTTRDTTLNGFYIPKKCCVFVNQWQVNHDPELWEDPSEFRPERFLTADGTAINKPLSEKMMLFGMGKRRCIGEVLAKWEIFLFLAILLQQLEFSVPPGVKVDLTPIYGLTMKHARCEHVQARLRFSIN
Kind of data set: In vitro inhibition of cDNA expressed human CYP1A2 (chlorzoxazone substrate, radio-HPLC). To be noted: mean of n=3. The method, then:
as §1, §2

For a further data set, the target named is CYP3A4 (Homo sapiens, UniProt P08684). Kind of data set: In vitro inhibition of cDNA expressed human CYP3A4 (testosterone substrate, radio-HPLC). The following applies: for percentage of activity remaining in the presence of the compound: mean of n=3. The method, then:
as §1, §2

A further data set deals with CYP2C19 (Homo sapiens, UniProt P33261). Kind of data set: In vitro inhibition of cDNA expressed human CYP2C19 ((S)-mephenytoin substrate, radio-HPLC). To be noted: control 100%, mean of n=3. The method, then: as §1, §2
A further data set addresses T2, CYP2C8 (Homo sapiens, UniProt P10632).
T2 construct: purchased Gentest (Woburn, Mass., USA)
T2 sequence (P10632 1-490): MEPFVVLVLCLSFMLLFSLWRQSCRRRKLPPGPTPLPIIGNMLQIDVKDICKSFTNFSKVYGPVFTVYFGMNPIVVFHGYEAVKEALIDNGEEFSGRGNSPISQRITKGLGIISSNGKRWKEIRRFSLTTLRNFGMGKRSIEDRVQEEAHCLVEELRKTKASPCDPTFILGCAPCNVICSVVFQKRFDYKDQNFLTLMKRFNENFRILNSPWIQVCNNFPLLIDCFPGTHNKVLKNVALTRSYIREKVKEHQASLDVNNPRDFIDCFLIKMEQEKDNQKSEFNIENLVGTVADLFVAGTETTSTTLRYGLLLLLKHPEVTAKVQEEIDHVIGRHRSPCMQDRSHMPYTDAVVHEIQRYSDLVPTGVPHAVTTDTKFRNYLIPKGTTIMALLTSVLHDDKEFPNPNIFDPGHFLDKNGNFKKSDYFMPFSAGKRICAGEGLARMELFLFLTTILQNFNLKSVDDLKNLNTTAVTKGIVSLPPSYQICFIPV
Kind of data set: Inhibition of CYP2C8 mediated 6α-hydroxylation of paclitaxel (human CYP2C8 cDNA expressed microsomes, HPLC-UV). It is filed as biochemical. The following applies: 20 μM paclitaxel. The method, then: A 100 μl reaction mixture containing 4 pmol CYP2C8, […] paclitaxel (5 mM paclitaxel stock in ethanol) and NADPH (2 mM) in 50 mM potassium phosphate buffer (pH 7.4) was incubated at 37° C. for 40 min in the absence (solvent only) and presence of either 100 μM estramustine or estromustine.
Estramustine and estromustine were dissolved in DMSO:CH3CN (1:1). The reaction was stopped by addition of 50 μl CH3CN followed by an additional 50 μl of mobile phase. […] All incubations were conducted in triplicate.
See table 2 for HPLC mobile phase conditions. Both paclitaxel and the metabolite 6a-hydroxypaclitaxel were detected by its absorbance at 230 nm.
To investigate if estramustine and estromustine were able to inhibit CYP2C8 mediated enzyme activities, human CYP2C8 cDNA expressed microsomes were incubated with paclitaxel in the presence of either estramustine or estromustine.

A further data set has as its target CYP2D6 (Homo sapiens, UniProt P10635). Kind of data set: In vitro inhibition of cDNA expressed human CYP2D6 (delavirdine substrate, radio-HPLC). To be noted: mean of n=3. On the procedure: as §1, §2
Where [1] appears, read: CYP2C9, compound at 100 μM, control 100%.
Where [2] appears, read: CYP1A2, compound at 100 μM, control 100%.
[3] abbreviates: CYP3A4, compound at 100 μM, control 100%.
Where [4] appears, read: CYP2D6, compound at 100 μM, control 100%.

CYP2C19, sequence (P33261 whole entry): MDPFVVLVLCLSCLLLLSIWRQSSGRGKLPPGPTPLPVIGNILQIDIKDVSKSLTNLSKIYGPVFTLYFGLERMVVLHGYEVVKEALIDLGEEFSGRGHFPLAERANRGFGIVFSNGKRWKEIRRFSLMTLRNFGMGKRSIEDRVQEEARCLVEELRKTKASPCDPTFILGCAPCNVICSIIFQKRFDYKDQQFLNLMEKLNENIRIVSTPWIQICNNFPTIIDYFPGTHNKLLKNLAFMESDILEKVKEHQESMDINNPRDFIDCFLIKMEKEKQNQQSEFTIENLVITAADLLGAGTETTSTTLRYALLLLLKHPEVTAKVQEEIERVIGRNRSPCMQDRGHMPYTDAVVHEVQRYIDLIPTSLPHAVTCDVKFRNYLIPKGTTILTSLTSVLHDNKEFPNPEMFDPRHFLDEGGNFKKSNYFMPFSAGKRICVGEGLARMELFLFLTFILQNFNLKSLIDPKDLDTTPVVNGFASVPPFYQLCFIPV
CYP3A4, sequence (P08684 whole entry): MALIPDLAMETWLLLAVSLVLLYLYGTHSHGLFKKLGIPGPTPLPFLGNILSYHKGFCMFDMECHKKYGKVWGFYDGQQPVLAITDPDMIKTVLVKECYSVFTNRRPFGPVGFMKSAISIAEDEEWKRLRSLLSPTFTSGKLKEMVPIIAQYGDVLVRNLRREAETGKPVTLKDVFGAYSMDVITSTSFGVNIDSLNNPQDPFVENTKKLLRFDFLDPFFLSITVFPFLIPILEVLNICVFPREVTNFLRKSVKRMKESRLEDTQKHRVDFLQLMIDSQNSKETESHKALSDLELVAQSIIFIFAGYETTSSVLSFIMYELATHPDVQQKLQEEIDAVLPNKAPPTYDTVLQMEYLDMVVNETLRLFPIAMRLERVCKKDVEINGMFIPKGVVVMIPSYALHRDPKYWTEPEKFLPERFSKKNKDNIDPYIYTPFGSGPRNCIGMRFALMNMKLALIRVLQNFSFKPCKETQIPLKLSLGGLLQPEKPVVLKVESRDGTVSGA
CYP2D6, sequence (P10635 whole entry): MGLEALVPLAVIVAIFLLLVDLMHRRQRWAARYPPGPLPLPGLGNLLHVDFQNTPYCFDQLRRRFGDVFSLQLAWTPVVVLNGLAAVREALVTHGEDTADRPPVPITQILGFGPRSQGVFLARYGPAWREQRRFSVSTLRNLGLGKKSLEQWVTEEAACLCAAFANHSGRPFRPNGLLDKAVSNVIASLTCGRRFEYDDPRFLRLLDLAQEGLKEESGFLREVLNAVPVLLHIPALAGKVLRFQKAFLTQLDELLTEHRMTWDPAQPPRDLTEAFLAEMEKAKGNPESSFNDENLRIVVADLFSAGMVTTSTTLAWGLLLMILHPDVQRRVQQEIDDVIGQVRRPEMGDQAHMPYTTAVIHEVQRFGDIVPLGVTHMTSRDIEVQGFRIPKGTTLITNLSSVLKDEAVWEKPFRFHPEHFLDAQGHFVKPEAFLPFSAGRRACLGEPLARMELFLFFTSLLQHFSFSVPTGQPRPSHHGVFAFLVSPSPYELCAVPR
CYP2C9, sequence (P11712 whole entry): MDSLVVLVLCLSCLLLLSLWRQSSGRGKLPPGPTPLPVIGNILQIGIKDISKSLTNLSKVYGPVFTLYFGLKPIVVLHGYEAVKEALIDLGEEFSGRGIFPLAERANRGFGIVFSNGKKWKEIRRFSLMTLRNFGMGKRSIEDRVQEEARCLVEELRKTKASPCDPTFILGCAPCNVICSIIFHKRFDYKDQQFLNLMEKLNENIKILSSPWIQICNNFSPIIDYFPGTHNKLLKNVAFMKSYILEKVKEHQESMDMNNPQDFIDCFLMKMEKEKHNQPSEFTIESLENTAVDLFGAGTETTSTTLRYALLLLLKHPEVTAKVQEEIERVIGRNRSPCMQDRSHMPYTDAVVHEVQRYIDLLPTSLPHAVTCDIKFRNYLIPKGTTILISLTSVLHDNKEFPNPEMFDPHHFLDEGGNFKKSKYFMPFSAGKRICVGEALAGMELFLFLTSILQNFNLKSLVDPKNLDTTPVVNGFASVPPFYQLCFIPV

Broadly, the inhibition is the change of the read-out against control, counted positive when it falls. A low value points to little suppression. For the compound `C[C@]12CC[C@@H]3c4ccc(OC(=O)N(CCCl)CCCl)cc4CC[C@H]3[C@@H]1CC[C@@H]2O` [Estramustine, estramustine], the “percentage of activity remaining in the presence of the compound” value (from here on “percentage of activity remaining”) on CYP2C9 (setting [1]) is given as 58.8%; on CYP2C9 (CYP2C9, control 100%), 56.4%; at CYP1A2 (setting [2]) it was 57.2%; at CYP1A2 (CYP1A2, control 100%) it was 72.7%; on CYP3A4 (setting [3]), 20.2%; on CYP3A4 (CYP3A4, control 100%) it was 27.0%. Moreover, the “percentage of activity remaining” value at CYP2C19 (CYP2C19, compound at 100 μM) turned out to be 40.1%; on CYP2C19 (CYP2C19, first estramustine column, head prints 100 μM) it was 37.9%; at CYP2D6 (setting [4]) it was 32.7%; on CYP2D6 (CYP2D6, control 100%) it was 38.0%. On CYP3A4 (human), this compound registered an inhibition at 90 min, 100 µM of about 80%. At CYP2C8 (human, microsomes, pH 7.4, CYP2C8, compound at 100 μM), this compound gave an inhibition at 40 min, 100 μM of 40%.
Turning to `C[C@]12CC[C@@H]3c4ccc(OC(=O)N(CCCl)CCCl)cc4CC[C@H]3[C@@H]1CCC2=O` [Estromustine, estromustine], the “percentage of activity remaining” value on CYP2C9 (CYP2C9, compound at 10 μM, control 100%) was found to be 92.5%; at CYP2C9 (setting [1]) it was 86.9%; at CYP1A2 (CYP1A2, compound at 10 μM, control 100%), 85.0%; on CYP1A2 (setting [2]) it was 68.4%; at CYP3A4 (CYP3A4, compound at 10 μM, control 100%), 43.2%; at CYP3A4 (setting [3]), 33.1%. The “percentage of activity remaining” value at CYP2C19 (CYP2C19, compound at 10 μM) came out at 90.6%; on CYP2C19 (CYP2C19, compound at 100 μM), 81.0%; on CYP2D6 (CYP2D6, compound at 10 μM, control 100%) it was 64.1%; at CYP2D6 (setting [4]) it was 76.9%. Further, the “inhibition of 6α-hydroxylation of paclitaxel” value at CYP2C8 (CYP2C8, compound at 100 μM, 40 min) is on record as 20%.

Values taken from US20030153539A1, “Method to potentiate the therapeutic efficacy of taxane and derivatives thereof” (priority 2000, published 2003).
